Test results published in patent publication US9505792B2, “Forms of cidofovir” (Johnson Matthey Public Limited Company, priority 2011, dated 2016).

Assay: Occupational exposure assessment (full monograph) of the final product
Conditions: final crystalline cidofovir dihydrate product; remains within category band 5 (safebridge category 3)
From the text: A full monograph for the final crystalline cidofovir dihydrate product (compound 9) has been completed and it was confirmed that, with an OEL of 0.6 μgm^−3, the product remains within category band 5 (safebridge category 3).

OEL: 0.6 μgm^−3
SMILES: Nc1ccn(C[C@@H](CO)OCP(=O)(O)O)c(=O)n1 [compound 9, cidofovir dihydrate]
